Literature values in patent US6551611B2, “Hormone replacement therapy method” (Schering Aktiengesellschaft, priority 1995, dated 2003).

Settings: oral administration

- bioavailability of estradiol orally, average: 5 % of the oral dose
Compound: C[C@]12CC[C@@H]3c4ccc(O)cc4CC[C@H]3[C@@H]1CC[C@@H]2O [estradiol]
